Columns and labels:
Assay type in all cases: biochemical
Human Calpain 9/NS1 = target: T1, Human Calpain 9/NS1 (Homo sapiens, UniProt O14815); test: Calpain inhibition continuous fluorescence (FRET) assay, Human Calpain 9/NS1; conditions: Column C; read-out: Human Calpain 9/NS1 IC50
T1 sequence (O14815 1-690): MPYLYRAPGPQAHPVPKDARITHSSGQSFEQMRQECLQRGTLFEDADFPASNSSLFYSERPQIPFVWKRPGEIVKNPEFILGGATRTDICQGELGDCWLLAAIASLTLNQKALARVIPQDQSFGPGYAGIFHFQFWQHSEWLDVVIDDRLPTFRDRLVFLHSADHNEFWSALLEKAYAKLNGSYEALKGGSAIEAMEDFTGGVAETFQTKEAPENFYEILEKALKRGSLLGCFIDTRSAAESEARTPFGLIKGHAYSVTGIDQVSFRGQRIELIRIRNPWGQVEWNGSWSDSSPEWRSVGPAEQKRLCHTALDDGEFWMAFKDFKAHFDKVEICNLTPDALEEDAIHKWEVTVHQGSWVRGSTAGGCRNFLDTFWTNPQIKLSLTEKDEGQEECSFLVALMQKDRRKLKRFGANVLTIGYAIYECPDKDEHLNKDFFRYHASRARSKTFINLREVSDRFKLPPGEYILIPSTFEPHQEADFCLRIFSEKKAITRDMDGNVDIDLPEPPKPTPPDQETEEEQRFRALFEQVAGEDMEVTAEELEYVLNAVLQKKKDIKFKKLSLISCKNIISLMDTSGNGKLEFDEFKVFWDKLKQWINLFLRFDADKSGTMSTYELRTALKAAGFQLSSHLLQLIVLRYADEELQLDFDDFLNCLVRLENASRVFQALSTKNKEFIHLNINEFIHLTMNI
T1 sequence (P04632 1-268 partner): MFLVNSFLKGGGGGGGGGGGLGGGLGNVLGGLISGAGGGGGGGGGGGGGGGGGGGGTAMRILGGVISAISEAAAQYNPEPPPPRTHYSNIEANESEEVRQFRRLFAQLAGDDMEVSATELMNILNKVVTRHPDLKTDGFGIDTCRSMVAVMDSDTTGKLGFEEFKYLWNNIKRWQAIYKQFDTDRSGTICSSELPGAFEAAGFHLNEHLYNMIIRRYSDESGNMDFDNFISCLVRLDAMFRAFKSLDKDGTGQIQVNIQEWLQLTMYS
Method in brief: (§1)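 Buffer 50 mM Tris pH 7.5/100 mM NaCl/1 mM DTT; enzyme + cpd preinc 25C; start w/ FRET substrate + CaCl2; kinetic 490/520 nm, 10 min; slopes 1-5 min; 4-PL IC50.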

Human Calpain 2/NS1 = target: T2, Human Calpain 2/NS1 (Homo sapiens, UniProt P17655); test: Calpain inhibition continuous fluorescence (FRET) assay, Human Calpain 2/NS1; conditions: Column B; read-out: Human Calpain 2/NS1 IC50
T2 sequence (P17655 1-700): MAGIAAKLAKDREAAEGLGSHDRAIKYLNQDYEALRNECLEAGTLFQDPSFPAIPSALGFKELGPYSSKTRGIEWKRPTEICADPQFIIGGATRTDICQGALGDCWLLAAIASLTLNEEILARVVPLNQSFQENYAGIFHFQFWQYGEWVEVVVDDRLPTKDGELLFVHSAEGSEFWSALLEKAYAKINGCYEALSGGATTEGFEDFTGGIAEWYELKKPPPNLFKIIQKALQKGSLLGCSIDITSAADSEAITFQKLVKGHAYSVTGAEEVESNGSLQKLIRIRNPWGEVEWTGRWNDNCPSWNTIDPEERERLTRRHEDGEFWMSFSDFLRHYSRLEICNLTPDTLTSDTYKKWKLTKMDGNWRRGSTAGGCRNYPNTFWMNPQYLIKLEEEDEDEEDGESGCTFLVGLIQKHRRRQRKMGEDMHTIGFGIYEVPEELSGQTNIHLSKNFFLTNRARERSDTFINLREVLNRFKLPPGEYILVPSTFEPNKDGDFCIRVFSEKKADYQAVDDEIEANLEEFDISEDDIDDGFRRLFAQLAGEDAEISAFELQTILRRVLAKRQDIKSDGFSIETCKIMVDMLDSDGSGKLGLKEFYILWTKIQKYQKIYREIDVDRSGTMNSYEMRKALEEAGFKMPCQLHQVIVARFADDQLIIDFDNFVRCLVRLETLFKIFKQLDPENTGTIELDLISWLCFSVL
T2 sequence (P04632 1-268 partner): T1 sequence (P04632 1-268 partner)
Method in brief: as §1

Human Calpain 1/NS1 = target: T3, Human Calpain 1/NS1 (Homo sapiens, UniProt P07384); test: Calpain inhibition continuous fluorescence (FRET) assay, Human Calpain 1/NS1; conditions: Column A; read-out: Human Calpain 1/NS1 IC50
T3 sequence (P07384 1-714): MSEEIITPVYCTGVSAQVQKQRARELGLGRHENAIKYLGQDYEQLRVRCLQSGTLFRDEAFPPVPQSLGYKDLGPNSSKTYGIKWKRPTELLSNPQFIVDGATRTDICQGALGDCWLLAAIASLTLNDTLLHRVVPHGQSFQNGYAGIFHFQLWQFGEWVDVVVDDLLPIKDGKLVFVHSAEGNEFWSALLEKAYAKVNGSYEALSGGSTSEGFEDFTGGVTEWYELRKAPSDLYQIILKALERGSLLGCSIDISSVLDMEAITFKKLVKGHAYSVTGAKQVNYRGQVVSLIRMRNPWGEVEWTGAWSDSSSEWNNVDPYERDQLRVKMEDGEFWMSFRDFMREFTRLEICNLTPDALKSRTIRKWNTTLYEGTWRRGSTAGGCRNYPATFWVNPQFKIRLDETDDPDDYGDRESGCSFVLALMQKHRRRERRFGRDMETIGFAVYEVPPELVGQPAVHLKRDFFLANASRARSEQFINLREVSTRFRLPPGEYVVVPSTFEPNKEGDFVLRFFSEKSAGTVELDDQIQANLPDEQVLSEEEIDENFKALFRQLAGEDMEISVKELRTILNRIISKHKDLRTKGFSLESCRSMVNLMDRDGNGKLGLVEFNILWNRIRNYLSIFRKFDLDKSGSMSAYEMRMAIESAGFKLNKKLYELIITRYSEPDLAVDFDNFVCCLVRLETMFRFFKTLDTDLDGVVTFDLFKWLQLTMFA
T3 sequence (P04632 1-268 partner): T1 sequence (P04632 1-268 partner)
Method in brief: as §1

Row | Structure (SMILES) | IC50 (Human Calpain 9/NS1) | IC50 (Human Calpain 2/NS1) | IC50 (Human Calpain 1/NS1)
1 | Cc1cc(C(=O)N[C@@H](Cc2ccccc2)C(=O)C(N)=O)n(-c2cccc3ncccc23)n1 [Compound 108, (S)—N-(4-amino-3,4-dioxo-1-phenylbutan-2-yl)-3-methyl-1-(quinolin-5-yl)-1H-pyrazole-5-carboxamide] | < 3 µM | < 3 µM | < 3 µM
2 | NC(=O)C(=O)[C@H](Cc1ccccc1)NC(=O)c1scnc1-c1ccccn1 [Compound 109, (S)—N-(4-amino-3,4-dioxo-1-phenylbutan-2-yl)-4-(pyridin-2-yl)thiazole-5-carboxamide] | < 3 µM | < 3 µM | < 3 µM
3 | O=C[C@H](Cc1ccccc1)NC(=O)c1cncn1-c1cc(-c2ncco2)ccn1 [Compound 110, (S)-1-(4-(oxazol-2-yl)pyridin-2-yl)-N-(1-oxo-3-phenylpropan-2-yl)-1H-imidazole-5-carboxamide] | 3 to 10 µM | < 3 µM | < 3 µM
4 | O=C[C@H](Cc1ccccc1)NC(=O)c1cncn1-c1ccc(-c2ncco2)cn1 [Compound 111, (S)-1-(5-(oxazol-2-yl)pyridin-2-yl)-N-(1-oxo-3-phenylpropan-2-yl)-1H-imidazole-5-carboxamide] | < 3 µM | < 3 µM | < 3 µM
5 | Cc1cc(C(=O)N[C@@H](Cc2ccccc2)C(=O)C(N)=O)nn1-c1ncc(-c2ccccc2)o1 [Compound 114, (S)—N-(4-amino-3,4-dioxo-1-phenylbutan-2-yl)-5-methyl-1-(5-phenyloxazol-2-yl)-1H-pyrazole-3-carboxamide] | 3 to 10 µM | < 3 µM | 3 to 10 µM
6 | Cc1cc(C(=O)N[C@@H](Cc2ccccc2)C(=O)C(N)=O)nn1-c1ncc(-c2ccccc2)s1 [Compound 115, (S)—N-(4-amino-3,4-dioxo-1-phenylbutan-2-yl)-5-methyl-1-(5-phenylthiazol-2-yl)-1H-pyrazole-3-carboxamide] | > 10 µM | < 3 µM | > 10 µM
7 | Cc1nsc(-c2ccccc2)c1C(=O)N[C@@H](Cc1ccccc1)C(=O)C(=O)NC1CC1 [Compound 116, (S)—N-(4-(cyclopropylamino)-3,4-dioxo-1-phenylbutan-2-yl)-3-methyl-5-phenylisothiazole-4-carboxamide] | > 10 µM | 3 to 10 µM | < 3 µM
8 | CC(C)c1cc(C(=O)N[C@@H](Cc2ccccc2)C(=O)C(N)=O)n(-c2ccccc2)n1 [Compound 117, (S)—N-(4-amino-3,4-dioxo-1-phenylbutan-2-yl)-3-isopropyl-1-phenyl-1H-pyrazole-5-carboxamide] | 3 to 10 µM | 3 to 10 µM | 3 to 10 µM
9 | Cc1cc(C(=O)N[C@@H](Cc2ccccc2)C(=O)C(N)=O)n(-c2nccc3ccccc23)n1 [Compound 119, (S)—N-(4-amino-3,4-dioxo-1-phenylbutan-2-yl)-1-(isoquinolin-1-yl)-3-methyl-1H-pyrazole-5-carboxamide] | < 3 µM | < 3 µM | < 3 µM
10 | Cc1cc(C(=O)N[C@@H](Cc2ccccc2)C(=O)C(=O)NC2CC2)n(-c2ccc(C(F)(F)F)cn2)n1 [Compound 122, (S)—N-(4-(cyclopropylamino)-3,4-dioxo-1-phenylbutan-2-yl)-3-methyl-1-(5-(trifluoromethyl)pyridin-2-yl)-1H-pyrazole-5-carboxamide] | < 3 µM | < 3 µM | < 3 µM
11 | Cc1cc(C)nc(-n2nc(C)cc2C(=O)N[C@@H](Cc2ccccc2)C(=O)C(N)=O)c1 [Compound 123, (S)—N-(4-amino-3,4-dioxo-1-phenylbutan-2-yl)-1-(4,6-dimethylpyridin-2-yl)-3-methyl-1H-pyrazole-5-carboxamide] | < 3 µM | < 3 µM | < 3 µM
12 | Cc1nc(-c2ccccc2)c(C(=O)N[C@@H](Cc2ccccc2)C(=O)C(=O)NC2CC2)s1 [Compound 124, (S)—N-(4-(cyclopropylamino)-3,4-dioxo-1-phenylbutan-2-yl)-2-methyl-4-phenylthiazole-5-carboxamide] | < 3 µM | < 3 µM | < 3 µM
13 | Cc1cc(C(=O)N[C@@H](Cc2ccccc2)C(=O)C(=O)NC2CC2)nn1-c1nc(-c2ccccc2)cs1 [Compound 125, (S)—N-(4-(cyclopropylamino)-3,4-dioxo-1-phenylbutan-2-yl)-5-methyl-1-(4-phenylthiazol-2-yl)-1H-pyrazole-3-carboxamide] | > 10 µM | > 10 µM | > 10 µM
14 | Cc1cc(C(=O)N[C@@H](Cc2ccccc2)C(=O)C(=O)NC2CC2)n(-c2cncnc2)n1 [Compound 127] | < 3 µM | < 3 µM | < 3 µM
15 | CC(C)(C)c1cc(C(=O)N[C@@H](Cc2ccccc2)C(=O)C(N)=O)n(-c2ccccc2)n1 [Compound 128, (S)—N-(4-amino-3,4-dioxo-1-phenylbutan-2-yl)-3-(tert-butyl)-1-phenyl-1H-pyrazole-5-carboxamide] | 3 to 10 µM | > 10 µM | 3 to 10 µM
16 | NC(=O)C(=O)[C@H](Cc1ccccc1)NC(=O)c1[nH]ncc1-c1ccccc1 [Compound 129, (S)—N-(4-amino-3,4-dioxo-1-phenylbutan-2-yl)-4-phenyl-1H-pyrazole-5-carboxamide] | 3 to 10 µM | > 10 µM | 3 to 10 µM
17 | Cc1cc(C(=O)N[C@@H](Cc2ccccc2)C(=O)C(=O)NC2CC2)n(-c2cccnc2)n1 [Compound 132, (S)—N-(4-(cyclopropylamino)-3,4-dioxo-1-phenylbutan-2-yl)-3-methyl-1-(pyridin-3-yl)-1H-pyrazole-5-carboxamide] | < 3 µM | < 3 µM | < 3 µM
18 | Cc1cc(C(=O)N[C@@H](Cc2ccccc2)C(=O)C(N)=O)n(-c2cncc3ccccc23)n1 [Compound 133, (S)—N-(4-amino-3,4-dioxo-1-phenylbutan-2-yl)-1-(isoquinolin-4-yl)-3-methyl-1H-pyrazole-5-carboxamide] | < 3 µM | < 3 µM | < 3 µM
